Measured values reported in PMC10909971, “Glucose 6‐phosphate dehydrogenase variants increase NADPH pools for yeast isoprenoid production” (FEBS Open Bio, 2024).
Read-outs that look alike come from different tables or passages of the source. One block for each molecule: values may come before it.

Experiments:
[1] = system: T1, G6PD-6PGL (linker-less fusion); conditions: read-out: G6PD-6PGL, 100 mM Tris-HCl pH 8.0, 10 mM MgCl2, 25 °C, G6PD domain
T1 construct: gene ZWF1

[2] = system: T2, G6PD-L-6PGL (fusion with linker); conditions: read-out: G6PD-L-6PGL, 100 mM Tris-HCl pH 8.0, 10 mM MgCl2, 25 °C, G6PD domain
T2 construct: gene ZWF1

purified protein = substrate: NC(=O)c1ccc[n+]([C@@H]2O[C@H](COP(=O)(O)OP(=O)(O)OC[C@H]3O[C@@H](n4cnc5c(N)ncnc54)[C@H](OP(=O)(O)O)[C@@H]3O)[C@@H](O)[C@H]2O)c1; assay: purified protein; conditions: G6P held constant, 100 mM Tris-HCl pH 8.0, 10 mM MgCl2, 25 °C

B1: ScG6PD (G6PD, ZWF1) (Saccharomyces cerevisiae S288C) (protein)
chain: MSEGPVKFEKNTVISVFGASGDLAKKKTFPALFGLFREGYLDPSTKIFGYARSKLSMEEDLKSRVLPHLKKPHGEADDSKVEQFFKMVSYISGNYDTDEGFDELRTQIEKFEKSANVDVPHRLFYLALPPSVFLTVAKQIKSRVYAENGITRVIVEKPFGHDLASARELQKNLGPLFKEEELYRIDHYLGKELVKNLLVLRFGNQFLNASWNRDNIQSVQISFKERFGTEGRGGYFDSIGIIRDVMQNHLLQIMTLLTMERPVSFDPESIRDEKVKVLKAVAPIDTDDVLLGQYGKSEDGSKPAYVDDDTVDKDSKCVTFAAMTFNIENERWEGVPIMMRAGKALNESKVEIRLQYKAVASGVFKDIPNNELVIRVQPDAAVYLKFNAKTPGLSNATQVTDLNLTYASRYQDFWIPEAYEVLIRDALLGDHSNFVRDDELDISWGIFTPLLKHIERPDGPTPEIYPYGSRGPKGLKEYMQKHKYVMPEKHPYAWPVTKPEDTKDN
Km (purified protein): 0.6 ± 0.1 µM

B2: ScG6PD (G6PD, ZWF1) (Saccharomyces cerevisiae S288C; N403D) (protein)
chain: MSEGPVKFEKNTVISVFGASGDLAKKKTFPALFGLFREGYLDPSTKIFGYARSKLSMEEDLKSRVLPHLKKPHGEADDSKVEQFFKMVSYISGNYDTDEGFDELRTQIEKFEKSANVDVPHRLFYLALPPSVFLTVAKQIKSRVYAENGITRVIVEKPFGHDLASARELQKNLGPLFKEEELYRIDHYLGKELVKNLLVLRFGNQFLNASWNRDNIQSVQISFKERFGTEGRGGYFDSIGIIRDVMQNHLLQIMTLLTMERPVSFDPESIRDEKVKVLKAVAPIDTDDVLLGQYGKSEDGSKPAYVDDDTVDKDSKCVTFAAMTFNIENERWEGVPIMMRAGKALNESKVEIRLQYKAVASGVFKDIPNNELVIRVQPDAAVYLKFNAKTPGLSNATQVTDLDLTYASRYQDFWIPEAYEVLIRDALLGDHSNFVRDDELDISWGIFTPLLKHIERPDGPTPEIYPYGSRGPKGLKEYMQKHKYVMPEKHPYAWPVTKPEDTKDN
Km (purified protein): 0.8 ± 0.1 µM

Next, values leading:

Km ([1]; NADP+ held constant): 0.6 µM | Km ([2]; NADP+ held constant): 2.3 ± 0.2 µM
Molecule: O=P(O)(O)OC[C@H]1OC(O)[C@H](O)[C@@H](O)[C@@H]1O (stereo partly drawn) [glucose 6‐phosphate]

Km ([1]; G6P held constant): 2.6 ± 0.4 µM | Km ([2]; G6P held constant): 5.6 ± 0.2 µM
Molecule: NC(=O)c1ccc[n+]([C@@H]2O[C@H](COP(=O)(O)OP(=O)(O)OC[C@H]3O[C@@H](n4cnc5c(N)ncnc54)[C@H](OP(=O)(O)O)[C@@H]3O)[C@@H](O)[C@H]2O)c1 [NADP^+]
